pIC50: −log10 of the molar value. Converted amounts (≈) assume the structure as drawn.
Columns and labels:
M.tb strain H37Rv [1] = test: MABA: inhibition of growth of M.tb H37Rv under aerobic (replicating) conditions; assay type: cell-based; conditions: for anti-M.tb activity (in words): M.tb H37Rv, comparison with 1; for MIC90 / MIC: Mycobacterium tuberculosis, H37RV; for MIC: read-out: MIC90 MABA
M.tb strain H37Rv [2] = test: LORA: inhibition of growth of M.tb H37Rv under non-replicating conditions; assay type: cell-based; conditions: Mycobacterium tuberculosis
Protocol: The compounds were evaluated for their inhibition of growth (measured as MIC90 values in µg/mL) against M.tb (strain H37Rv) under both replicating (MABA)[16] or non-replicating (LORA)[17] conditions. […] In a search for less lipophilic analogues, we prepared and evaluated compounds where this phenyl B-ring unit was replaced with different heterocycles of varying lipophilicity (Table 1).

M.tb strain H37Rv [3] = test: MICs determined at Tibotec (slightly different protocol); assay type: cell-based; conditions: Mycobacterium tuberculosis, MICs determined at Tibotec (Mechelen, Belgium), read-out: MIC90 (MABA, footnote d)
Source text: Given that good activity had been reported for furan 2 (albeit in M. smegmatis),[11] we evaluated a series of both 2- and 3-furyl analogues bearing different C-unit substituents.

CYP 3A4 = CYP 3A4 (Homo sapiens, UniProt P08684); test: Inhibition of CYP 3A4; assay type: in vitro ADME; conditions: 20 min exposure
[4] = human, microsomes
in vitro = conditions: human, human liver microsomes

Chain of CYP 3A4 (P08684 whole entry, species assumed): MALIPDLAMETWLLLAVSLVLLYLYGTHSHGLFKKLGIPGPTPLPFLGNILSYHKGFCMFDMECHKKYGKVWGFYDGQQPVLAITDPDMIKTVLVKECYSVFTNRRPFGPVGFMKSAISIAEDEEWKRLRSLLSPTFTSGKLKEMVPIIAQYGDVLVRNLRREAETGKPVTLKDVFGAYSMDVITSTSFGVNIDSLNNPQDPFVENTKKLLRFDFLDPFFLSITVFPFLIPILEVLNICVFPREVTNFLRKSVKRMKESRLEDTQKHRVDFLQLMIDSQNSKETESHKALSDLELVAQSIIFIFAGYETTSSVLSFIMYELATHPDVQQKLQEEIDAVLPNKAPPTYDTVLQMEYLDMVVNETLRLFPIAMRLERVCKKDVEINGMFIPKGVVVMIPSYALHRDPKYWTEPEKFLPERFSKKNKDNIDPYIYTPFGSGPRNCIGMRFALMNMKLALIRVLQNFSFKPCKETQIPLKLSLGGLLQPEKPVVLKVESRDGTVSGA

| SMILES | MIC90 (M.tb strain H37Rv [1]) | MIC90 (M.tb strain H37Rv [2]) | MIC90 (M.tb strain H37Rv [3]) | also measured |
| --- | --- | --- | --- | --- |
| COc1nc2ccc(C#N)cc2cc1[C@@H](c1cc(C)sc1C)[C@@](O)(CCN(C)C)c1cncc(C)c1 [Compound 7] | 1.94 µg/mL (≈ 3.87 µM) | 1.1 µg/mL (≈ 2.2 µM) |  | anti-M.tb activity (in words) (M.tb strain H37Rv [1]): less active; MIC (M.tb strain H37Rv [1]): 0.05 to 0.58 µg/mL (≈ 0.0999 to 1.16 µM) |
| COc1nc2ccc(C#N)cc2cc1[C@@H](c1cc(C)c(C)s1)[C@@](O)(CCN(C)C)c1cccc(F)c1 [Compound 10] | 0.05 µg/mL (≈ 0.0993 µM) | 0.2 µg/mL (≈ 0.397 µM) |  | anti-M.tb activity (in words) (M.tb strain H37Rv [1]): equally potent; MIC (M.tb strain H37Rv [1]): 0.05 to 0.58 µg/mL (≈ 0.0993 to 1.15 µM) |
| COc1ncccc1[C@H](c1cc2cc(C#N)ccc2nc1OC)[C@@](O)(CCN(C)C)c1cccc(C)c1 [Compound 31] | 0.3 µg/mL (≈ 0.604 µM) | 0.15 µg/mL (≈ 0.302 µM) |  |  |
| COc1cccc([C@](O)(CCN(C)C)[C@@H](c2cc3cc(Br)ccc3nc2OC)c2ccnc(OC)c2OC)c1 [Compound 47] | < 0.02 µg/mL |  |  | anti-M.tb activity (in words) (M.tb strain H37Rv [1]): retain the potency of 1 |
| COc1nc2ccc(C#N)cc2cc1C(c1ccco1)C(O)(CCN(C)C)c1cccc(F)c1 (centres unmarked) [Compound 16] |  |  | 1.79 µg/mL (≈ 3.9 µM) |  |
| COc1nc2ccc(Br)cc2cc1C(c1ccoc1)C(O)(CCN(C)C)c1cccc(OC(F)(F)F)c1 (centres unmarked) [Compound 25] |  |  | 0.76 µg/mL (≈ 1.31 µM) |  |
| COc1nc2ccc(Br)cc2cc1C(c1ccco1)C(O)(CCN(C)C)c1cccc(OC(F)(F)F)c1 (centres unmarked) [Compound 17] |  |  | 0.76 µg/mL (≈ 1.31 µM) |  |
| COc1nc2ccc(Br)cc2cc1[C@@H](c1ccnc(OC)c1OC)[C@@](O)(CCN(C)C)c1cccc(F)c1 [Compound 44] | 0.02 µg/mL (≈ 0.0342 µM) | 0.07 µg/mL (≈ 0.12 µM) |  |  |
| COc1cccc(C(O)(CCN(C)C)C(c2ccoc2)c2cc3cc(Br)ccc3nc2OC)c1OC (centres unmarked) [Compound 26] |  |  | 1.16 µg/mL (≈ 2.09 µM) |  |
| COc1nc2ccc(C#N)cc2cc1C(c1ccoc1)C(O)(CCN(C)C)c1cccc(F)c1 (centres unmarked) [Compound 23] |  |  | 1.08 µg/mL (≈ 2.35 µM) |  |
| COc1ccc(C(c2cc3cc(C#N)ccc3nc2OC)C(O)(CCN(C)C)c2cccc(F)c2)s1 (centres unmarked) [Compound 14] |  |  | 0.7 µg/mL (≈ 1.38 µM) |  |
| COc1nc2ccc(Br)cc2cc1[C@@H](c1ccc(C)s1)[C@@](O)(CCN(C)C)c1cccnc1OC [Compound 12] | 0.22 µg/mL (≈ 0.395 µM) | 0.52 µg/mL (≈ 0.934 µM) |  | anti-M.tb activity (in words) (M.tb strain H37Rv [1]): effective inhibitors |
| COc1cccc([C@](O)(CCN(C)C)[C@@H](c2cc3cc(Br)ccc3nc2OC)c2ccnc(OC)c2OC)c1OC [Compound 50] |  |  | 0.21 µg/mL (≈ 0.335 µM) |  |
| COc1nc2ccc(Br)cc2cc1C(c1ccoc1)C(O)(CCN(C)C)c1cccc(F)n1 (centres unmarked) [Compound 24] |  |  | 0.68 µg/mL (≈ 1.32 µM) |  |
| COc1nc2ccc(Br)cc2cc1C(c1ccoc1)C(O)(CCN(C)C)c1cccc(F)c1 (centres unmarked) [Compound 22, 1-(6-Bromo-2-methoxyquinolin-3-yl)-4-(dimethylamino)-2-(3-fluorophenyl)-1-(furan-3-yl)butan-2-ol] |  |  | 0.74 µg/mL (≈ 1.44 µM) |  |
| COc1cccc([C@](O)(CCN(C)C)[C@@H](c2cc3cc(Br)ccc3nc2OC)c2cc(C)sc2C)n1 [Compound 5] | 0.12 µg/mL (≈ 0.21 µM) | 0.15 µg/mL (≈ 0.263 µM) |  | MIC (M.tb strain H37Rv [1]): 0.05 to 0.58 µg/mL (≈ 0.0876 to 1.02 µM) |
| COc1nc2ccc(Br)cc2cc1C(c1ccco1)C(O)(CCN(C)C)c1cccc2c1OCO2 (centres unmarked) [Compound 19] |  |  | 0.69 µg/mL (≈ 1.28 µM) |  |
| COc1nc2ccc(Br)cc2cc1[C@@H](c1ccnc(OC)c1OC)[C@@](O)(CCN(C)C)c1cccc(OC(F)F)c1 [Compound 48] | < 0.02 µg/mL |  |  | anti-M.tb activity (in words) (M.tb strain H37Rv [1]): retain the potency of 1; pIC50 (CYP 3A4): < 5.00; Clint [4]: 11 µL/min/mg/protein; half-life (in vitro): 61 min |
| COc1nc2ccc(Br)cc2cc1[C@@H](c1ccc(SC)nc1)[C@@](O)(CCN(C)C)c1cccc(F)c1 [Compound 38] | 0.14 µg/mL (≈ 0.245 µM) | 0.37 µg/mL (≈ 0.649 µM) |  |  |
| COc1nc2ccc(Br)cc2cc1[C@@H](c1cc(C)sc1C)[C@@](O)(CCN(C)C)c1cccnc1OC [Compound 8] | 0.12 µg/mL (≈ 0.21 µM) | 0.2 µg/mL (≈ 0.351 µM) |  | MIC (M.tb strain H37Rv [1]): 0.05 to 0.58 µg/mL (≈ 0.0876 to 1.02 µM) |

| SMILES | MIC90 (M.tb strain H37Rv [1]) | MIC90 (M.tb strain H37Rv [2]) | MIC90 (M.tb strain H37Rv [3]) | also measured |
| --- | --- | --- | --- | --- |
| COc1nc2ccc(Br)cc2cc1C(c1ccc(C)s1)C(O)(CCN(C)C)c1cccc(F)c1 (centres unmarked) [Compound 11] |  |  | 0.47 µg/mL (≈ 0.865 µM) |  |
| COc1cccc(C(O)(CCN(C)C)C(c2ccco2)c2cc3cc(Br)ccc3nc2OC)c1OC (centres unmarked) [Compound 18] |  |  | 0.71 µg/mL (≈ 1.28 µM) |  |
| COc1nc2ccc(C#N)cc2cc1[C@@H](c1ccnc(OC)c1OC)[C@@](O)(CCN(C)C)c1cccc(C)c1 [Compound 46] | 0.15 µg/mL (≈ 0.285 µM) | 0.14 µg/mL (≈ 0.266 µM) |  |  |
| COc1nc2ccc(Br)cc2cc1[C@@H](c1cccnc1N(C)C)[C@@](O)(CCN(C)C)c1cccc(F)c1 [Compound 35] | 0.18 µg/mL (≈ 0.317 µM) | 0.2 µg/mL (≈ 0.352 µM) |  | pIC50 (CYP 3A4): < 4.30; Clint [4]: 45 µL/min/mg/protein; half-life (in vitro): 15 min |
| COc1ncccc1C(c1cc2cc(Br)ccc2nc1OC)C(O)(CCN(C)C)c1cccc(F)c1 (centres unmarked) [Compound 29] |  |  | 0.12 µg/mL (≈ 0.216 µM) |  |
| COc1nc2ccc(Br)cc2cc1C(c1ccoc1)C(O)(CCN(C)C)c1ccccn1 (centres unmarked) [Compound 28] |  |  | 1.8 µg/mL (≈ 3.63 µM) |  |
| COc1nc2ccc(Br)cc2cc1[C@@H](c1cncc(C)c1)[C@@](O)(CCN(C)C)c1cccc(C#N)c1 [Compound 41] | 1.32 µg/mL (≈ 2.42 µM) | 3.38 µg/mL (≈ 6.2 µM) |  |  |
| COc1ccc([C@H](c2cc3cc(Br)ccc3nc2OC)[C@@](O)(CCN(C)C)c2cccnc2OC)s1 [Compound 13] | 0.24 µg/mL (≈ 0.419 µM) | 0.53 µg/mL (≈ 0.926 µM) |  | anti-M.tb activity (in words) (M.tb strain H37Rv [1]): effective inhibitors |
| CCN(CC)c1ccc([C@H](c2cc3cc(Br)ccc3nc2OC)[C@@](O)(CCN(C)C)c2cccc(F)c2)cn1 [Compound 37] | 0.02 µg/mL (≈ 0.0336 µM) |  |  |  |
| COc1ncccc1[C@H](c1cc2cc(C#N)ccc2nc1OC)[C@@](O)(CCN(C)C)c1cccc(C#N)c1 [Compound 34] | 0.38 µg/mL (≈ 0.749 µM) | 0.82 µg/mL (≈ 1.62 µM) |  |  |
| COc1ncccc1[C@H](c1cc2cc(Br)ccc2nc1OC)[C@@](O)(CCN(C)C)c1cccc(C#N)c1 [Compound 33] | 0.34 µg/mL (≈ 0.606 µM) | 0.75 µg/mL (≈ 1.34 µM) |  |  |
| COc1cccc([C@](O)(CCN(C)C)[C@H](c2cncc(C)c2)c2cc3cc(Br)ccc3nc2OC)c1 [Compound 40] | 1.9 µg/mL (≈ 3.45 µM) | 2.2 µg/mL (≈ 4 µM) |  |  |
| COc1nc2ccc(Br)cc2cc1[C@@H](c1cc(C)sc1C)[C@@](O)(CCN(C)C)c1cccc(C#N)c1 [Compound 3, 3-(1-(6-Bromo-2-methoxyquinolin-3-yl)-4-(dimethylamino)-1-(2,5-dimethylthiophen-3-yl)-2-hydroxybutan-2-yl)benzonitrile] | 0.12 µg/mL (≈ 0.213 µM) |  |  | MIC (M.tb strain H37Rv [1]): 0.05 to 0.58 µg/mL (≈ 0.0886 to 1.03 µM) |
| COc1ncccc1[C@H](c1cc2cc(Br)ccc2nc1OC)[C@@](O)(CCN(C)C)c1cccc(C)c1 [Compound 30] | 0.13 µg/mL (≈ 0.236 µM) | 0.25 µg/mL (≈ 0.454 µM) |  |  |
| COc1nc2ccc(Br)cc2cc1C(c1ccoc1)C(O)(CCN(C)C)c1cccc2c1OCO2 (centres unmarked) [Compound 27] |  |  | 0.9 µg/mL (≈ 1.67 µM) |  |
| COc1nc2ccc(Br)cc2cc1C(c1ccco1)C(O)(CCN(C)C)c1cccc(C#N)c1 (centres unmarked) [Compound 21] |  |  | 1.96 µg/mL (≈ 3.77 µM) |  |
| COc1nc2ccc(Br)cc2cc1[C@@H](c1cc(C)sc1C)[C@@](O)(CCN(C)C)c1cncc(C)c1 (racemic) [Compound 6] | 0.58 µg/mL (≈ 1.05 µM) | 0.3 µg/mL (≈ 0.541 µM) |  | MIC (M.tb strain H37Rv [1]): 0.05 to 0.58 µg/mL (≈ 0.0902 to 1.05 µM) |
| COc1nc2ccc(Br)cc2cc1C(c1ccco1)C(O)(CCN(C)C)c1cccc(F)c1 (centres unmarked) [Compound 15] |  |  | 0.74 µg/mL (≈ 1.44 µM) |  |
| COc1nc2ccc(Br)cc2cc1C(c1ccco1)C(O)(CCN(C)C)c1ccccn1 (centres unmarked) [Compound 20] |  |  | 1.95 µg/mL (≈ 3.93 µM) |  |
| COc1cccc([C@](O)(CCN(C)C)[C@@H](c2cc3cc(Br)ccc3nc2OC)c2cc(C)sc2C)c1OC (racemic) [Compound 4] | 0.5 µg/mL (≈ 0.834 µM) | 0.27 µg/mL (≈ 0.45 µM) |  | MIC (M.tb strain H37Rv [1]): 0.05 to 0.58 µg/mL (≈ 0.0834 to 0.967 µM) |

— paper PMC5696560 (Bioorganic & Medicinal Chemistry Letters, 2017)
